Data: ChEMBL document CHEMBL1201862, “PubChem BioAssay data set” (2004)
Activity calls are given as the source filed them.

Key:
[1] = target: Dual specificity tyrosine-phosphorylation-regulated kinase 1A (Rattus norvegicus, UniProt Q63470); format: biochemical, Homo sapiens
[2] = cells; format: functional, cell-based
[3] = cells; format: functional, cell-based; remark: listed apart in the source
[4] = target: Nonstructural protein 1 (Influenza A virus, UniProt Q194T2); format: functional, Influenza A virus (A/California/07/2009(H1N1))
Chain of Nonstructural protein 1 (Q194T2 whole entry): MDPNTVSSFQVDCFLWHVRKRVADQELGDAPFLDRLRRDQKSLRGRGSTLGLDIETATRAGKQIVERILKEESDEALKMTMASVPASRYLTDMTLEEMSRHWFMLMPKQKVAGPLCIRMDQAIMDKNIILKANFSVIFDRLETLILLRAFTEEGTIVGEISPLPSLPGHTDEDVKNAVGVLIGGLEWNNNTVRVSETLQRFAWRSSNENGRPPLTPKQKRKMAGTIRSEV

[5] = target: FAD-linked sulfhydryl oxidase ALR (Homo sapiens, UniProt P55789); experiment: ALR-catalysed DTT oxidation blockers – biochemical, H2O2 detection, luminescence, cherry-pick, dose response (AID 493248)
Chain of FAD-linked sulfhydryl oxidase ALR (P55789 whole entry): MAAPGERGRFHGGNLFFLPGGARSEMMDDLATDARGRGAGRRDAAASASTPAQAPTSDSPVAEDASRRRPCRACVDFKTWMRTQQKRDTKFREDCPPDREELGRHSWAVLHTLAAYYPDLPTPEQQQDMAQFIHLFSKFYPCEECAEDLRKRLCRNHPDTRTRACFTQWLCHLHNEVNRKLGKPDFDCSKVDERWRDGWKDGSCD

[6] = target: T1, Rac GTPase-activating protein 1 (Homo sapiens, UniProt Q9H0H5); experiment: blockers of MgcRacGAP-driven Rac1 GTP hydrolysis – biochemical, ADP Hunter fluorescence, primary and confirmatory, confirmation (AID 624330); format: functional
T1 sequence (Q9H0H5 whole entry): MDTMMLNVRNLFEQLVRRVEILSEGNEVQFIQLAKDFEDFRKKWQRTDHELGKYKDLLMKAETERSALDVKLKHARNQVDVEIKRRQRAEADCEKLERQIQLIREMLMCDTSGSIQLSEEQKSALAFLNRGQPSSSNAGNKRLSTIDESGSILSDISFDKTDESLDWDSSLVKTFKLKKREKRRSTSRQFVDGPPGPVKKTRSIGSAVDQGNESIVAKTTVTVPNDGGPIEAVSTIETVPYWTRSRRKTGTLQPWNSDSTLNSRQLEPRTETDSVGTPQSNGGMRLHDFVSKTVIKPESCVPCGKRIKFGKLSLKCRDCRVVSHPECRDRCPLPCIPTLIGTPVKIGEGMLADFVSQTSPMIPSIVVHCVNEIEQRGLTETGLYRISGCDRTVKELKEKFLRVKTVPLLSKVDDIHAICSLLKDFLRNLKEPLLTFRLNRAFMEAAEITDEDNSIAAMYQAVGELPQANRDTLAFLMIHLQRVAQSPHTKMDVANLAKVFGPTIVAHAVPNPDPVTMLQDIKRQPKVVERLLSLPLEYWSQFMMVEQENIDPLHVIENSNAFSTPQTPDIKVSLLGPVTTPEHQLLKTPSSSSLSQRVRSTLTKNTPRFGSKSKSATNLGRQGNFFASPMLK

[7] = NIH3T3 cell viability loss – ATP luminescence, mouse fibroblasts, counter-screen, dose response (AID 2010); format: functional, cell-based;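 also: cells exposed to compound for about 90 hours before reading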
[8] = target: Voltage-dependent T-type calcium channel subunit alpha-1H (Homo sapiens, UniProt O95180); format: functional;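 also: channel activity triggered by adding a high calcium stimulation buffer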
Chain of Voltage-dependent T-type calcium channel subunit alpha-1H (O95180 whole entry): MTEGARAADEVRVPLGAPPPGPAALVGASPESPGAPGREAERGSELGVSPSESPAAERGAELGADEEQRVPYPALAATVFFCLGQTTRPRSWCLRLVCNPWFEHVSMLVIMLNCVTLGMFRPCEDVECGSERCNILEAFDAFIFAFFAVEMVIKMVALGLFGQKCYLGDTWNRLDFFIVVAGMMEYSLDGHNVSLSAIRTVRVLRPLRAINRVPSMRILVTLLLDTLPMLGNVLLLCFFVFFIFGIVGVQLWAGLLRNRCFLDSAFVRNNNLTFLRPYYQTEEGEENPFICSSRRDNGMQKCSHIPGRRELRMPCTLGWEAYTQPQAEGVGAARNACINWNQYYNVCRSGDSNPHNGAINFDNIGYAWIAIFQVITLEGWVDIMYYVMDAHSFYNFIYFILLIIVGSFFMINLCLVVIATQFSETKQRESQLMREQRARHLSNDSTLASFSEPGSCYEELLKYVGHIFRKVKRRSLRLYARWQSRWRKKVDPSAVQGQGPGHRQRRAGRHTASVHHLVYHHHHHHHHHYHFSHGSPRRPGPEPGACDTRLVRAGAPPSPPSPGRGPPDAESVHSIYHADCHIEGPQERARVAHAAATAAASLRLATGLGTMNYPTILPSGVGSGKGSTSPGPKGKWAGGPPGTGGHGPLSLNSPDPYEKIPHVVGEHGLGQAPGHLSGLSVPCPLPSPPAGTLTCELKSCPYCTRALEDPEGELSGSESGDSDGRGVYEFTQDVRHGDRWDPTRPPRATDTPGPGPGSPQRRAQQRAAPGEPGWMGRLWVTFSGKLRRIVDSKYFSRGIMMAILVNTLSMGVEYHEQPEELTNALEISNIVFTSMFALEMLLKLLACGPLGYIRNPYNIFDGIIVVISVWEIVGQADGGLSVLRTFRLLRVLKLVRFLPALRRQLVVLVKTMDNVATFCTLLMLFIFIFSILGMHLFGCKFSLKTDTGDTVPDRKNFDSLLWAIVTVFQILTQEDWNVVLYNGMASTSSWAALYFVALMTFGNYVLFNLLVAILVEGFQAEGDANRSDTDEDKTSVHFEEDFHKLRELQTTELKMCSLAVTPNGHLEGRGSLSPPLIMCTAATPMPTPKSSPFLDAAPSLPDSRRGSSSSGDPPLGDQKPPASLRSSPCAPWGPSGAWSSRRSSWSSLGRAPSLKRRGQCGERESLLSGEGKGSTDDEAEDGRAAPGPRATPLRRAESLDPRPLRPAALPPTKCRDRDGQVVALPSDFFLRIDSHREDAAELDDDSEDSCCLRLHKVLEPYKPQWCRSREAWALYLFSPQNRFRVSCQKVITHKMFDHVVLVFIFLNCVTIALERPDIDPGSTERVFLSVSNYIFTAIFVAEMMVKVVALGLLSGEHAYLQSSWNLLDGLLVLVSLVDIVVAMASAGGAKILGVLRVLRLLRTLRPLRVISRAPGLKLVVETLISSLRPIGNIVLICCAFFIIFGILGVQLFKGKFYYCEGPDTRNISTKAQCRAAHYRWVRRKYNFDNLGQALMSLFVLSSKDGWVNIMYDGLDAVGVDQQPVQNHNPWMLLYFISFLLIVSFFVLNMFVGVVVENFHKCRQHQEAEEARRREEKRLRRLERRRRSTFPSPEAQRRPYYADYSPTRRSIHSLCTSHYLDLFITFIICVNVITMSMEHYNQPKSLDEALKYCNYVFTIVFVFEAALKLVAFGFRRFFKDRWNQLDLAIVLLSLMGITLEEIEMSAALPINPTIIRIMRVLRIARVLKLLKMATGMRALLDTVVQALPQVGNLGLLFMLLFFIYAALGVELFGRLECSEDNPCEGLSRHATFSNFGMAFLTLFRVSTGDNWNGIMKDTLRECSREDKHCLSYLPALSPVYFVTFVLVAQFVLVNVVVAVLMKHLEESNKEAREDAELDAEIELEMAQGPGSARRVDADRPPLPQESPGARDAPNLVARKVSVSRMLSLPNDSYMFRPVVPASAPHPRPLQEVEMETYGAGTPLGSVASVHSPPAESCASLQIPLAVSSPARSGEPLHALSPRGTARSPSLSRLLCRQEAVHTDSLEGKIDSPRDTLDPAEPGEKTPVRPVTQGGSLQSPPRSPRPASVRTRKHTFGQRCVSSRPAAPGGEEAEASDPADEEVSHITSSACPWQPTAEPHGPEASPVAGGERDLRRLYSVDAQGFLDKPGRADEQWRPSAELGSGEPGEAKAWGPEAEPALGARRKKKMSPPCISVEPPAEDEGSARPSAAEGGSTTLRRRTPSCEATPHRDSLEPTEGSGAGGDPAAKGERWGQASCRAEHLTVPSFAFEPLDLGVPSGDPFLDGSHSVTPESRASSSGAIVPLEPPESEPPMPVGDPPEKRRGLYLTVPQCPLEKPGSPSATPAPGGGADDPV

[9] = Trypanosoma cruzi growth suppression in host cells – NIH3T3 host cells, beta-gal luminescence, confirmation (AID 2044); format: functional, cell-based;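 also: intracellular parasites grown in NIH/3T3 mouse fibroblasts as host cells; luminescent beta-galactosidase reporter signal from transgenic T. cruzi replicating inside host cells; inhibitors lower the luminescence signal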
[10] = target: T2, Carboxy-terminal domain RNA polymerase II polypeptide A small phosphatase 1 (Homo sapiens, UniProt Q9GZU7); experiment: CTDSP1 inhibitors, concentration-response, biochemical, absorbance readout, ultra-high-throughput screen actives (AID 540297); format: functional
T2 sequence (Q9GZU7 whole entry): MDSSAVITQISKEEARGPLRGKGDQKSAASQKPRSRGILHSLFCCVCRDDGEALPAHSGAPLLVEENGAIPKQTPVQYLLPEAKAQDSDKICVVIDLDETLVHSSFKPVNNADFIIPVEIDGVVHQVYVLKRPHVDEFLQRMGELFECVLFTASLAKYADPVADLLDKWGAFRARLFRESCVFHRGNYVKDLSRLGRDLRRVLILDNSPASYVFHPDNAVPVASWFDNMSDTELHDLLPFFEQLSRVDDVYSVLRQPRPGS

[11] = target: T3, Polyadenylate-binding protein 1 (Homo sapiens, UniProt P11940); experiment: MLLE binding blockers, Cy5 peptide tracer – biochemical, fluorescence polarization, Cy5-PAM2 peptide, secondary, miRNA deadenylation inhibitor project, dose response (AID 602260); format: functional; conditions: read-out: IC50_Mean
T3 sequence (P11940 whole entry, the tested form may be a part): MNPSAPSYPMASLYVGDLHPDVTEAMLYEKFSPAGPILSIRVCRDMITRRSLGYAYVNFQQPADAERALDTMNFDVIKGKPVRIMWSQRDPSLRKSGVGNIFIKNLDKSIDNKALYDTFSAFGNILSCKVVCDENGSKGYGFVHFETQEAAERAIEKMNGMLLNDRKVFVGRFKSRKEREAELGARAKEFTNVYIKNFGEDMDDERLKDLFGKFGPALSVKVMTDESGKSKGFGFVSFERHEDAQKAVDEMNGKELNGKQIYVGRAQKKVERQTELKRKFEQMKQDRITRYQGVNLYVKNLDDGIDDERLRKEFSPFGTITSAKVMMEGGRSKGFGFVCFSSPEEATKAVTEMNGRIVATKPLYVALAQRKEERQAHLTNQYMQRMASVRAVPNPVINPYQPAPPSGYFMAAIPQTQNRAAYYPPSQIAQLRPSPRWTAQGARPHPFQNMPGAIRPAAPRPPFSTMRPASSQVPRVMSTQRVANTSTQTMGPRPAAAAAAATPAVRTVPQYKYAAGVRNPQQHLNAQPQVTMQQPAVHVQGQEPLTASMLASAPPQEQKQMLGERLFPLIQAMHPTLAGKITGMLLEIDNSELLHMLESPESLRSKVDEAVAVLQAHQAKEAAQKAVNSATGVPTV

[12] = target: T3, Polyadenylate-binding protein 1; experiment: MLLE domain peptide-binding blockers, IC50 – biochemical, fluorescence polarization, FITC-PAM2 peptide, dose response (AID 602259); format: functional; conditions: read-out: IC50_Mean
[13] = target: T4, Leucine aminopeptidase (Plasmodium falciparum 3D7, UniProt Q8IL11); experiment: P. falciparum M17LAP inhibitors, primary screen, biochemical, fluorogenic H-Leu-NHMec substrate, 1536-well (AID 1619); format: functional
T4 sequence (Q8IL11 whole entry): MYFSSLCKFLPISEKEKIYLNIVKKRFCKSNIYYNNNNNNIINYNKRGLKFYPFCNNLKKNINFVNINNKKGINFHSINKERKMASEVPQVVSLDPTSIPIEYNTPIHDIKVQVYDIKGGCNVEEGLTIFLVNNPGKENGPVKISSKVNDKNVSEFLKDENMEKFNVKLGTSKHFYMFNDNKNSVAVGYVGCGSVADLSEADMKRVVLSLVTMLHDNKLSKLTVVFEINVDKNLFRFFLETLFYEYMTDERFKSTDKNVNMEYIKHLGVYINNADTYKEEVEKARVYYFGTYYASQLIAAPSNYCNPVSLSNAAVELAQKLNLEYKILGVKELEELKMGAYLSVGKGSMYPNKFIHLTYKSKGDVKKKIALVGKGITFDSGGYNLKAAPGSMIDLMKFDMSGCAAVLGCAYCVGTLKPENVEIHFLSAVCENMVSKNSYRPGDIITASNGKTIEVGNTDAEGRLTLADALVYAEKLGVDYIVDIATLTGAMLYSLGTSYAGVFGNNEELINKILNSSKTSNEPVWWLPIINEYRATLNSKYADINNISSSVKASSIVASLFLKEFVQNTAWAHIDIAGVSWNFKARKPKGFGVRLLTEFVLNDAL

[14] = Luminescence Cell-Based Dose Confirmation HTS to Identify Activators of 5'UTR Stem-Loop Driven Alpha-Synuclein mRNA Translation in H4 Neuroglioblastoma Cells. [Related pubchem assays: 1829 (Project Summary), 1814 (Primary HTS)]; format: functional
[15] = Luminescence Cell-Based Dose Response HTS to Identify Activators of Luciferase Translation or Activity in H4 […] Cells. [Related pubchem assays: 1829 (Project Summary), 1814 (Primary HTS)]; format: functional
[16] = tested on: H4; experiment: Luminescence Cell-Based Dose Response HTS to Identify Activators of 5'UTR Stem-Loop Driven Prion Protein mRNA Translation in H4 Neuroglioblastoma Cells. [Related pubchem assays: 1829 (Project Summary), 1814 (Primary HTS)]; format: functional; conditions: Homo sapiens
[17] = target: Paired box protein Pax-8 (Homo sapiens, UniProt Q06710); experiment: PAX8 transcriptional activity inhibition in RMG-I – RMG-I cells, luciferase, cherry-pick, dose response (AID 687027); format: functional, cell-based;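 also: luciferase reporter driven by Pax8 target thyroperoxidase promoter measured by SteadyGlo luminescence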
Chain of Paired box protein Pax-8 (Q06710 whole entry): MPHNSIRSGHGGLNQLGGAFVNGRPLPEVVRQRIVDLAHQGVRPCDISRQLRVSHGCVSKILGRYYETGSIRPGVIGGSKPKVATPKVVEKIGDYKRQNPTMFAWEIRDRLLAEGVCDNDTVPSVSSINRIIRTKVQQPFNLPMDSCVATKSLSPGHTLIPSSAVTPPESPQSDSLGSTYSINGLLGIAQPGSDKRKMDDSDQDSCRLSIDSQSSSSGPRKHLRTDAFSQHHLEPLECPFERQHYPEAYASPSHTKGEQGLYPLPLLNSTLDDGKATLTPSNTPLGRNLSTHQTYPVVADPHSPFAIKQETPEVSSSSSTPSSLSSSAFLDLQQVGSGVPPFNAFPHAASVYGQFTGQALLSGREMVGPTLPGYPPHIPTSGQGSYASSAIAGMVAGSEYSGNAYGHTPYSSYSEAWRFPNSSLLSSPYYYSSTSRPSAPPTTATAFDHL

[18] = OVCAR8 cell viability loss – plate reader, dry powder samples, PAX8 project, dose response (AID 743197); format: functional, cell-based; conditions: OVCAR-8
[19] = OVCAR-3 cell viability loss – plate reader, dry powder samples, PAX8 inhibitor project, dose response (AID 743044); format: functional, cell-based
[20] = target: Induced myeloid leukemia cell differentiation protein Mcl-1 (Homo sapiens, UniProt Q07820); format: functional
Chain of Induced myeloid leukemia cell differentiation protein Mcl-1 (Q07820 whole entry): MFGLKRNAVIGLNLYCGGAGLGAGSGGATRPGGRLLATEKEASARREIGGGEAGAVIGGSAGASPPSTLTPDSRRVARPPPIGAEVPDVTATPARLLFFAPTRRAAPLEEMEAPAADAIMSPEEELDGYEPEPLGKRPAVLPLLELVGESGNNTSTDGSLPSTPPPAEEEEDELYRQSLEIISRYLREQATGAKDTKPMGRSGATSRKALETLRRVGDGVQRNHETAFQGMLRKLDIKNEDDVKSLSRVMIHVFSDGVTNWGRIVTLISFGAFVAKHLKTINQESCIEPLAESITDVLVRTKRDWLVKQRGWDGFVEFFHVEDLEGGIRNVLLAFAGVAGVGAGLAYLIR

[21] = target: T5, Heat shock factor protein 1 (Mus musculus, UniProt P38532); experiment: decrease of HSF1-responsive luciferase luminescence – cell-based, NIH3T3, dose retest, confirmation (AID 2382); format: functional;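 also: NIH3T3 fibroblasts with HSF1-driven luciferase reporter stressed by proteasome inhibitor MG132; luminescence from HSF1-driven luciferase expression after 8 hours of MG132 stress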
T5 sequence (P38532 whole entry): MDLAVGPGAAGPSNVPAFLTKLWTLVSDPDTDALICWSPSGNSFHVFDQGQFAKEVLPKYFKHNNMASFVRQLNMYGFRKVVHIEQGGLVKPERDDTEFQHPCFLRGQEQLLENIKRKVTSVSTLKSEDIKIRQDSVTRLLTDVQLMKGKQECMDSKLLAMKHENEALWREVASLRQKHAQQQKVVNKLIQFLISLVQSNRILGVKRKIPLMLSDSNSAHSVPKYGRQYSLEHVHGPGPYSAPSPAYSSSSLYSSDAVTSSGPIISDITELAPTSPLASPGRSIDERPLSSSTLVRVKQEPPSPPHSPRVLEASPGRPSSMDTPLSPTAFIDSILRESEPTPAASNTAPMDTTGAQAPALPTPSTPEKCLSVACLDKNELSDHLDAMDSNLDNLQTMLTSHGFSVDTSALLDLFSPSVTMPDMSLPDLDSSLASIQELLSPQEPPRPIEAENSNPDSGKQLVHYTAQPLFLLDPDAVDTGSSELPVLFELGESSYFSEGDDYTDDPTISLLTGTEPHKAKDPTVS

CCCC[n+]1ccc(-c2nc3cc([N+](=O)[O-])ccc3[nH]2)cc1
AC50 [1]: 2.24 µM (active)

FC(F)Oc1ccc(NC(S)=Nc2ccc3c[nH]nc3c2)cc1
EC50 [2]: > 350 µM (not active)
EC50 [3]: > 350 µM (not active)

Cc1ccc(-c2cc(C(=O)N3CCCCCC3)no2)cc1
EC50 [2]: 10.2 µM (active)
EC50 [3]: > 350 µM (not active)

Cc1c(NN=C2C(=O)NC(=O)NC2=O)c(=O)n(-c2ccccc2)n1C
IC50 [4]: 2.12 µM (active)

CC(=O)N1CCN(c2ccc(NCc3ccc(Br)o3)cc2)CC1
AC50 [5]: 0.743 µM (active)
IC50 [6]: 13.7 µM (active)

CCC(C)(C)n1nnnc1C(c1ccncc1)N1CCC(Cc2ccccc2)CC1 (stereo not given)
EC50 [7]: > 60 µM (not active)
EC50 [8]: 9.75 µM (active)
EC50 [9]: 1.06 µM (active)

Cc1ccc(-c2cc(C(=O)Nc3cccnc3)c3ccccc3n2)o1
IC50 [10]: 9.9 µM (active)

O=C(Nc1cccc(-c2nc3cccnc3s2)c1)c1cccnc1Cl
AC50 [1]: 0.651 µM (active)

CC(=O)Nc1ccc(S(=O)(=O)NC(C)C(=O)NC(C)c2ccccc2)cc1 (stereo not given)
IC50 [11]: > 66 µM (inactive)
AC50 [5]: 0.083 µM (active)
IC50 [12]: > 66 µM (inactive)

COc1cccc(N2CCN(C3CC(=O)N(c4ccc(Cl)c(Cl)c4)C3=O)CC2)c1 (stereo not given)
EC50 [8]: 6.84 µM (active)

O=C(O)c1ccc(CSc2nc3ccc(NC(=O)c4ccccc4C(=O)O)cc3s2)cc1
IC50 [10]: 6.66 µM (active)

Cc1ccc(NC(=O)CSCC(=O)N2c3ccccc3CCc3ccccc32)cc1
EC50 [8]: 4.65 µM (active)

Cc1ccccc1CSCCNC(=O)CCSc1ccccc1
EC50 [8]: 3.24 µM (active)

CCCC1CCC(=C(C#N)C(N)=O)CC1 (stereo not given)
EC50 [2]: 41.6 µM (active)
EC50 [3]: > 350 µM (not active)

CN(C)c1ccc(N=Nc2cccc(F)c2)cc1
IC50 [4]: 25 µM (active)

Cn1cc(C(=O)c2ccc(Cl)cc2Cl)cc1C(=O)NN=C(N)COc1ccccc1
EC50 [8]: 3.97 µM (active)

Cc1cc(C(=O)O)ccc1-c1ccc(/C=C2\NC(=O)N(Cc3ccccc3Cl)C2=O)o1
IC50 [13]: 13.6 µM (active)
IC50 [10]: 7.71 µM (active)

O=C(CSc1ccc(-c2ccccn2)nn1)c1ccccc1
EC50 [14]: > 120 µM (not active)
IC50 [4]: 10.9 µM (active)
EC50 [15]: 8.47 µM (active)
EC50 [16]: 56.6 µM (active)

CC1CCN(C(=O)CSCC(=O)Nc2nc(-c3cccs3)cs2)CC1
EC50 [8]: 2.23 µM (active)

COc1ccc2nc(NC(=O)C3CCCN3S(=O)(=O)c3ccc(C)cc3)sc2c1 (stereo not given)
EC50 [8]: 57.5 µM (active)

NC(=O)COc1ccc(/C=N\NC(=O)c2ccc(-c3ccccc3)cc2)cc1
IC50 [10]: 6.66 µM (active)

Clc1ccc2[nH]c(COc3ccccc3)nc2c1
AC50 [1]: 6.23 µM (active)

C[C@H]1CCCCO[C@@H](CN(C)Cc2ccc(C(F)(F)F)cc2)[C@@H](C)CN([C@@H](C)CO)C(=O)c2cc(NC(=O)Nc3ccc(F)cc3)ccc2O1
AC50 [17]: 5.26 µM (active)
AC50 [18]: 56 µM (active)
AC50 [19]: 66.3 µM (active)

C[C@@H]1CN([C@@H](C)CO)C(=O)Cc2cc(NC(=O)Nc3ccc(C(F)(F)F)cc3)ccc2O[C@H]1CN(C)C(=O)NC1CCCCC1
AC50 [17]: 8.4 µM (active)
AC50 [19]: 54 µM (active)

COc1ccc(C(=O)n2nc(C)c(Br)c2C)cc1
IC50 [20]: 2.84 µM (not active)

O=C(N/N=C/c1ccccc1O)C(=O)Nc1ccccn1
IC50 [4]: 10.8 µM (active)

CC(C)n1cc(/C=N/Nc2ccc(C(=O)O)cc2)c2ccccc21
AC50 [5]: 0.192 µM (active)
EC50 [21]: < 0.16 µM (active)

COc1ccccc1OCC(=O)N/N=C/c1c(O)ccc2ccccc12
EC50 [2]: > 350 µM (not active)
EC50 [3]: 10.8 µM (active)
